Data reported in paper PMC10204800 (Frontiers in Pharmacology, 2023).

Target: T1, hDOR (human delta opioid receptor) (Homo sapiens, UniProt P41143)
T1 construct: gene OPRD1; stably transfected in CHO cells (CHO-hDOR); membrane homogenates
Format: binding
Settings: read-out: Ki values (nM) Mean (SEM)

T1 sequence (P41143 whole entry): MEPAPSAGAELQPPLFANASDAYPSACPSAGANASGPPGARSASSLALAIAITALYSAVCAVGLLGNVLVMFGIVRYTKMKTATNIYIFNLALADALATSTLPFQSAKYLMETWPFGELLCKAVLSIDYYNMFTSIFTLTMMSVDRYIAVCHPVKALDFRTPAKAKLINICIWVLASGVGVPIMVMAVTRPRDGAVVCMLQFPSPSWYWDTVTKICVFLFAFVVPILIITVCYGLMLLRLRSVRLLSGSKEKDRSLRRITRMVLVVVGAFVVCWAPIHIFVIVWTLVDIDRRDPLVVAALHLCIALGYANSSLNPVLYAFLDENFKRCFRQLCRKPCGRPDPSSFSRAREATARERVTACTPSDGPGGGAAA

(4R,4aS,6R,7R,7aR,12bS)-3-(cyclopropylmethyl-d 2 )-6-(2-hydroxy-3,3-dimethylbutan-2-yl)-7-methoxy-1,2,3,4,5,6,7,7a-octahy dro-4a,7-ethano-4,12-methanobenzofuro[3,2-e]isoquinolin-9-ol [BUP-D2]
Ki: 0.424 nM
